Results taken from patent publication US12557815B2, “Herbicide combinations comprising glufosinate and pyraflufen-ethyl” (BASF SE, priority 2020, dated 2026).

Tested on: Kochia (Bassia scoparia)
Assay: Greenhouse post emergence treatment, visual herbicidal control on a scale from 0 to 100
Assay type: in vivo
Source text: Synergism can be described as an interaction where the combined effect of two or more compounds is greater than the sum of the individual effects of each of the compounds. The presence of a synergistic effect in terms of percent control, between two mixing partners (X and Y) can be calculated using the Colby equation (Colby, S. R., 1967, Calculating Synergistic and Antagonistic Responses in Herbicide Combinations, Weeds, 15, 21-22):
When the observed combined control effect is greater than the expected (calculated) combined control effect (E), then the combined effect is synergistic.
Weeds included Kochia (Bassia scoparia). However, the herbicidal effect afforded by the compounds, mixtures or compositions is not limited to these species. The analysis of synergism or antagonism between the mixtures or compositions was determined using Colby's equation.
Pots with 0.3 L of volume were filled with soil (SunGro Horticulture, Agawam, MA 01001) to grow one plant per pot in the greenhouse until the desired developmental stage. Environmental conditions inside the greenhouse were set up for 25° C., 75% relative humidity, and 12 h light day^−1 with natural sunlight or 500 […] PAR for cloudy days. […] During this time, the plants were tended, and their response to the individual treatments was evaluated. […]

SMILES	Herbicidal activity against Kochia (21 DAT) Found (Glufosinate 420 g ai/ha alone, visual scale 0 to 100 (100 = complete destruction), mean of three replications)	Herbicidal activity against Kochia (21 DAT) Found (Pyraflufen 0.2 g ai/ha alone, visual scale 0 to 100, mean of three replications)
CP(=O)(O)CCC(N)C(=O)O (racemic) [Glufosinate, (2RS)-2-amino-4-[hydroxy(methyl)phosphinoyl]butyric acid]	25	
CCOC(=O)COc1cc(-c2nn(C)c(OC(F)F)c2Cl)c(F)cc1Cl [Pyraflufen, pyraflufen-ethyl]		32
